Experimental data taken from ChEMBL document CHEMBL5303711, “ECBD screening data for assay EOS300108” (2023).
Where a name gives a salt, the structure may show the parent alone. The source made the active and inactive calls. The rule behind the calls is not given here.

Assay: Cytotoxicity activity against human HepG2 cells assessed by CellTiter-Glo luminescent cell viability assay.
Assay type: toxicity, cell-based
Design: assay stage confirmatory assay, source tissue liver
Conditions: HepG2 cells, read-out: IC50 relative

Compound	CC50
CN1C[C@H](C(=O)N[C@]2(C)O[C@@]3(O)[C@@H]4CCCN4C(=O)[C@H](Cc4ccccc4)N3C2=O)C[C@@H]2c3cccc4[nH]cc(c34)C[C@H]21 [DIHYDROERGOTAMINE MESYLATE]	12.9 µM (active)
Cc1cccc2c3c(ccc12)C1=C(C(=O)C3=O)[C@@H](C)CO1 [DIHYDROTANSHINONE I]	1.8 µM (active)
Cc1ccc(C)c(-c2cc(C(F)(F)F)nn2-c2ccc(S(N)(=O)=O)cc2)c1 [DIMETHYL CELECOXIB]	18.1 µM (inactive)
C[C@@H]1CC[C@@]2(OC1)O[C@H]1C[C@H]3[C@@H]4CC=C5C[C@@H](O[C@@H]6O[C@H](CO)[C@@H](O[C@@H]7O[C@@H](C)[C@H](O)[C@@H](O)[C@H]7O)[C@H](O)[C@H]6O[C@@H]6O[C@@H](C)[C@H](O)[C@@H](O)[C@H]6O)CC[C@]5(C)[C@H]4CC[C@]3(C)[C@H]1[C@@H]2C [DIOSCIN]	0.7 µM (active)
c1ccc2c(c1)[I+]c1ccccc1-2 [DIPHENYLENEIODONIUM CHLORIDE]	0.2 µM (active)
COc1cc2c(O)c3c(c(-c4ccc5c(c4)OCO5)c2cc1OC)C(=O)OC3 [DIPHYLLIN]	1.4 µM (active)
CCN(CC)C(=S)S [DITIOCARB SODIUM]	6.6 µM (active)
COc1cc2nc(N3CCN(C(=O)C4COc5ccccc5O4)CC3)nc(N)c2cc1OC (stereo not drawn) [DOXAZOSIN MESYLATE]	13.5 µM (inactive)
CN1CCN(Cc2ccc(Nc3ncc(Cl)c(Nc4ccccc4S(=O)(=O)N(C)C)n3)cc2)CC1 [DUBERMATINIB]	11.2 µM (active)
CNCC[C@H](Oc1cccc2ccccc12)c1cccs1 [DULOXETINE HYDROCHLORIDE]	4.3 µM (active)
CCCCOc1ccc(C(=O)CCN2CCCCC2)cc1 [DYCLONINE HYDROCHLORIDE]	9.9 µM (active)
O=c1c2ccccc2[se]n1-c1ccccc1 [EBSELEN]	28.4 µM (inactive)
CC1(C)CC=C(c2nc(C3CC(C)(C)OC(C)(C)C3)ccc2NC(=O)c2nc(C#N)c[nH]2)CC1 [EDICOTINIB]	2.8 µM (active)
OC(CN1CCC(Cc2ccc(F)cc2)CC1)c1ccc(Cl)cc1 (stereo not drawn) [ELIPRODIL]	50 µM (inactive)
CC[C@H]1CN2CCc3cc(OC)c(OC)cc3[C@@H]2C[C@@H]1C[C@H]1NCCc2cc(OC)c(OC)cc21 [EMETINE HYDROCHLORIDE]	0.2 µM (active)
COC(=O)N[C@@H](C)CNc1nccc(-c2cn(C(C)C)nc2-c2cc(Cl)cc(NS(C)(=O)=O)c2F)n1 [ENCORAFENIB]	0.9 µM (active)
CCOc1ccccc1-n1c(C(C)N2CCN(C(=O)COc3ccc(Cl)cc3)CC2)nc2ccccc2c1=O (stereo not drawn) [ERASTIN]	1.8 µM (active)
COc1cc(OC)cc(N(CCNC(C)C)c2ccc3ncc(-c4cnn(C)c4)nc3c2)c1 [ERDAFITINIB]	3.9 µM (active)
C#Cc1cccc(Nc2ncnc3cc(OCCOC)c(OCCOC)cc23)c1 [ERLOTINIB HYDROCHLORIDE]	3.4 µM (inactive)
Cc1cc(C#N)cc(C)c1Oc1nc(Nc2ccc(C#N)cc2)nc(N)c1Br [ETRAVIRINE]	50 µM (inactive)
COc1ccc2cc1Oc1ccc(cc1)C[C@H]1c3cc(c(OC)cc3CCN1C)Oc1c(OC)c(OC)cc3c1[C@H](C2)N(C)CC3 [FANCHININ]	1.4 µM (active)
Cc1cnc(Nc2ccc(OCCN3CCCC3)cc2)nc1Nc1cccc(S(=O)(=O)NC(C)(C)C)c1 [FEDRATINIB]	1.1 µM (active)
CC1=C(/C=C/C(C)=C/C=C/C(C)=C/C(=O)Nc2ccc(O)cc2)C(C)(C)CCC1 [FENRETINIDE]	10.8 µM (active)

Compound	CC50
CON(C)C(=O)N1N=C(c2cc(F)ccc2F)S[C@@]1(CCCN)c1ccccc1 [FILANESIB]	11 µM (active)
O=C(Nc1nc2cccc(-c3ccc(CN4CCS(=O)(=O)CC4)cc3)n2n1)C1CC1 [FILGOTINIB]	6.4 µM (active)
COc1ccc(-c2nc(N3CCOCC3)c3sc(CN(C)c4ncc(C(=O)NO)cn4)cc3n2)cn1 [FIMEPINOSTAT]	< 0.1 µM (active)
CCCCCCCCc1ccc(CCC(N)(CO)CO)cc1 [FINGOLIMOD HYDROCHLORIDE]	1.4 µM (active)
Cc1ncc(NC(=O)c2ccc(CN3CCN(C)CC3)c(C(F)(F)F)c2)cc1Nc1nccc(-c2cccnc2)n1 [FLUMATINIB]	3.3 µM (active)
Fc1ccc(C(c2ccc(F)cc2)N2CCN(C/C=C/c3ccccc3)CC2)cc1 [FLUNARIZINE HYDROCHLORIDE]	14.6 µM (inactive)
CNCCC(Oc1ccc(C(F)(F)F)cc1)c1ccccc1 (stereo not drawn) [FLUOXETINE HYDROCHLORIDE]	6.6 µM (active)
OCCN1CCN(CCCN2c3ccccc3Sc3ccc(C(F)(F)F)cc32)CC1 [FLUPHENAZINE HYDROCHLORIDE]	3.2 µM (active)
C[C@]12CC[C@H](O)CC1=CC[C@@H]1[C@@H]2CC[C@]2(C)C(n3cnc4ccccc43)=CC[C@@H]12 [GALETERONE]	10.4 µM (active)
O=c1cc(-c2ccc(O)c(O)c2)oc2cc(O[C@@H]3O[C@H](CO)[C@@H](O)[C@H](O)[C@H]3O)cc(O)c12 [GALUTEOLIN]	5.7 µM (inactive)
CC(C)c1cc(-c2n[nH]c(=O)n2-c2ccc3c(ccn3C)c2)c(O)cc1O [GANETESPIB]	< 0.1 µM (active)
O=C(NOCCO)c1ccc2cncn2c1Nc1ccc(I)cc1F [GDC-0623]	< 0.1 µM (active)
CN(C)C1CCN(C(=O)c2ccc(NC(=O)Nc3ccc(-c4nc(N5CCOCC5)nc(N5CCOCC5)n4)cc3)cc2)CC1 [GEDATOLISIB]	1.7 µM (active)
CN(C)c1ccc(C(=C2C=CC(=[N+](C)C)C=C2)c2ccc(N(C)C)cc2)cc1 [GENTIAN VIOLET]	14.6 µM (inactive)
CN(C)CCCn1cc(C2=C(c3c[nH]c4ccccc34)C(=O)NC2=O)c2ccccc21 [GF-109203]	4.8 µM (active)
CC1(C)C=Cc2c(ccc3c2OC[C@@H](c2ccc(O)cc2O)C3)O1 [GLABRIDIN]	12.8 µM (active)
Cc1cc2c(C(C)C)c(O)c(O)c(C=O)c2c(O)c1-c1c(C)cc2c(C(C)C)c(O)c(O)c(C=O)c2c1O [GOSSYPOL]	6.4 µM (active)
CC[C@H](C)n1cc(C)c2c(C(=O)NCc3c(C)cc(C)[nH]c3=O)cc(-c3ccc(N4CCNCC4)nc3)cc21 [GSK2816126]	4.9 µM (active)
CCn1c(-c2nonc2N)nc2cnc(Oc3cccc(NC(=O)c4ccc(OCCN5CCOCC5)cc4)c3)cc21 [GSK-269962A]	3 µM (active)
C[C@@H](Oc1cc(-n2cnc3ccc(CN4CCN(C)CC4)cc32)sc1C(N)=O)c1ccccc1C(F)(F)F [GSK-461364]	3.7 µM (active)
CCn1cc(-c2ccnc3[nH]c(-c4cccc(CN(C)C)c4)cc23)c(-c2ccc(NC(=O)N(C)C)cc2)n1 [GSK-1070916]	2.8 µM (active)
CN(c1ccc(NC(=O)Nc2ccc(OC(F)(F)F)cc2)cc1)c1ccnc(Nc2cccc(S(N)(=O)=O)c2)n1 [GW806742X]	0.9 µM (active)
O=C(CC1NCCCC1O)Cn1cnc2cc(Br)c(Cl)cc2c1=O (stereo not drawn) [HALOFUGINONE]	0.1 µM (active)

Compound	CC50
O=C(CCCN1CCC(O)(c2ccc(Cl)cc2)CC1)c1ccc(F)cc1 [HALOPERIDOL]	9.6 µM (active)
CCS(=O)(=O)Nc1ccc2c(c1)/C(=C(/Nc1ccc(CN3CCCCC3)cc1)c1ccccc1)C(=O)N2 [HESPERADIN]	0.2 µM (active)
Oc1c(Cl)cc(Cl)c(Cl)c1Cc1c(O)c(Cl)cc(Cl)c1Cl [HEXACHLOROPHENE]	5.2 µM (active)
CC(=O)[C@]1(O)Cc2c(O)c3c(c(O)c2[C@@H](O[C@H]2C[C@H](N)[C@H](O)[C@H](C)O2)C1)C(=O)c1ccccc1C3=O [IDARUBICIN HYDROCHLORIDE]	0.2 µM (active)
Nc1ncc(-c2cnn(CCO)c2)c2scc(-c3ccc(NC(=O)Nc4cccc(F)c4)cc3)c12 [ILORASERTIB]	2.8 µM (active)
Cc1ccc(NC(=O)c2ccc(CN3CCN(C)CC3)cc2)cc1Nc1nccc(-c2cccnc2)n1 [IMATINIB]	7.3 µM (active)
CCc1cc2c(cc1CC)CC(NC[C@H](O)c1ccc(O)c3[nH]c(=O)ccc13)C2 [INDACATEROL]	9.1 µM (active)
CCN1CCN(c2ccc(Nc3cc(N(C)C(=O)Nc4c(Cl)c(OC)cc(OC)c4Cl)ncn3)cc2)CC1 [INFIGRATINIB]	3.3 µM (active)
Nc1ncnc2c1c(I)cn2[C@@H]1O[C@H](CO)[C@@H](O)[C@H]1O [IODOTUBERCIDIN]	0.4 µM (active)
CC(C)NC[C@@H](C(=O)N1CCN(c2ncnc3c2[C@H](C)C[C@H]3O)CC1)c1ccc(Cl)cc1 [IPATASERTIB]	13 µM (active)
CCc1c2c(nc3ccc(OC(=O)N4CCC(N5CCCCC5)CC4)cc13)-c1cc3c(c(=O)n1C2)COC(=O)[C@]3(O)CC [IRINOTECAN]	10.1 µM (active)
Cc1ccc(C(=O)N(CCCN)[C@@H](c2nc3cc(Cl)ccc3c(=O)n2Cc2ccccc2)C(C)C)cc1 [ISPINESIB]	5.5 µM (active)
CCC(C)n1ncn(-c2ccc(N3CCN(c4ccc(OCC5COC(Cn6cncn6)(c6ccc(Cl)cc6Cl)O5)cc4)CC3)cc2)c1=O (stereo not drawn) [ITRACONAZOLE]	4.9 µM (active)
CC(C)(C)c1cc(C(C)(C)C)c(NC(=O)c2c[nH]c3ccccc3c2=O)cc1O [IVACAFTOR]	7.5 µM (active)
CC(C)C[C@H](NC(=O)CNC(=O)c1cc(Cl)ccc1Cl)B(O)O [IXAZOMIB]	0.1 µM (active)
O=C(Nc1cnccc1Cl)N1CCN(Cc2ccc3c(c2)OC(F)(F)O3)CC1 [JNJ-42165279]	11.9 µM (inactive)
CO/N=C(/C(=O)OC)c1ccccc1COc1ccccc1C [KRESOXIM-METHYL]	12.5 µM (active)
N#Cc1ccc(Cn2cncc2CN2CCN(c3cccc(Cl)c3)C(=O)C2)cc1 [L-778123]	1.1 µM (active)
CC1(C)CCC2=C(O1)c1ccccc1C(=O)C2=O [LAPACHONE]	2.3 µM (active)
CN[C@@H](C)C(=O)N[C@H](C(=O)N1CCC[C@H]1c1nc(C(=O)c2ccc(F)cc2)cs1)C1CCCCC1 [LCL-161]	6.8 µM (active)
CC(C)n1c(/C=C/[C@@H](O)C[C@@H](O)CC(=O)O)c(-c2ccc(F)cc2)c2ccccc21 [LESCOL]	7.4 µM (active)
CC(=O)N1CCN(c2ccc(OC[C@@H]3CO[C@@](Cn4ccnc4)(c4ccc(Cl)cc4Cl)O3)cc2)CC1 [LEVOKETOCONAZOLE]	11.6 µM (active)
